Assay results published in PMC10804372, “Degradation by Design: New Cyclin K Degraders from Old CDK Inhibitors” (ACS Chemical Biology, 2024).

What was measured:
Cyclin K [1] = test: Cyclin K levels by Western blot after single-concentration treatment; assay type: cell-based, human; settings: HEK293T cells, 1 μM for 2 h; for cyclin K degradation: Western blot; for Remaining Cyclin K (%): quantified from Western blots, mean ± SD, three independent experiments
Protocol: (§1) HEK293T human […] kidney cells were cultured in DMEM (Gibco/Life Technologies), containing 25 mM D-glucose, 4 mM L-glutamine, and 1 mM sodium pyruvate, and supplemented with 10% (v/v) FBS and 1% nonessential amino acids (Gibco/Life Technologies). Cells were incubated at 37 °C in a humidified atmosphere with 5% CO2.
(§2) Cells were washed with PBS and lysed (20 mM HEPES pH 7.5, 10% glycerol, 0.4 M KCl, 0.4% Triton X-100, 15 mM EDTA, and 1× protease and phosphatase inhibitors). The insoluble fraction was removed by centrifugation. Protein quantification was performed using a Bradford assay and compared to a BSA calibration curve. Equal amounts of lysates were run on SDS–PAGE 4–12% Bis–Tris Protein Gels (NuPAGE, Thermo Fisher Scientific) and then transferred onto Immobilon-P PVDF Membrane (Millipore, IPVH00010) using a Mini Trans-Blot Cell (Bio-Rad, 1703930). The membranes were blocked with 5% bovine albumin serum (BSA) in Tris-buffered saline with Tween 20 (TBS-T) and incubated with primary antibodies overnight at 4 °C. The membranes were washed three times with TBS-T and incubated with HRP-conjugated secondary antibody (BioRad) for 2 h. Membranes were washed again three times with TBS-T before being developed using Pierce ECL Western Blotting Substrate (Thermo, 32106) and visualized using LI-COR. Antibodies were purchased from Cell Signaling Technology: anti-GAPDH (D4C6R) and anti-DDB1 (D4C8) or Bethyl Laboratories: anti-Cyclin K (A301-939A). The following HRP-linked secondary antibodies were used by dilution in 5% BSA/TBS-T: antirabbit IgG (BioRad, 5213–2504) and antimouse IgG (BioRad, 103005).
(§3) Unedited blots containing the marker lane are available on request. Western blots were quantified using ImageJ. Cyclin K levels were normalized using GAPDH as a loading control. DC50 values were calculated from concentration–response curves using nonlinear regression fit to a 4-parameter curve by GraphPad Prism.

Cyclin K [2] = test: Cyclin K degradation concentration-response (DC50, DMax) by Western blot; assay type: cell-based, human; settings: for DMax (%) / DC50: HEK293T, Western blot quantification, 3 biological repeats; for DC50: read-out: CycK DC50; for fold decrease in degradation ability versus pyridine counterpart: furan analogues vs 1 (CR8), 36, 40
Protocol: With the aim of comparing the degradation ability of the new analogues, we derived DC50 values by using Western blotting (Table 5). […] This approach has been previously used to improve the potency of BCL6 degraders.[33] We therefore also measured CDK12 affinity using the KINOMEscan binding assay (Table 5).[34]
as §1, §2, §3

CDK12 = target: T1, CDK12 (Homo sapiens, UniProt Q9NYV4); test: KINOMEscan binding assay (Eurofins DiscoverX); settings: for Kd: KINOMEscan
T1 construct: purchased Eurofins DiscoverX (KINOMEscan service)
T1 sequence (Q9NYV4 whole entry): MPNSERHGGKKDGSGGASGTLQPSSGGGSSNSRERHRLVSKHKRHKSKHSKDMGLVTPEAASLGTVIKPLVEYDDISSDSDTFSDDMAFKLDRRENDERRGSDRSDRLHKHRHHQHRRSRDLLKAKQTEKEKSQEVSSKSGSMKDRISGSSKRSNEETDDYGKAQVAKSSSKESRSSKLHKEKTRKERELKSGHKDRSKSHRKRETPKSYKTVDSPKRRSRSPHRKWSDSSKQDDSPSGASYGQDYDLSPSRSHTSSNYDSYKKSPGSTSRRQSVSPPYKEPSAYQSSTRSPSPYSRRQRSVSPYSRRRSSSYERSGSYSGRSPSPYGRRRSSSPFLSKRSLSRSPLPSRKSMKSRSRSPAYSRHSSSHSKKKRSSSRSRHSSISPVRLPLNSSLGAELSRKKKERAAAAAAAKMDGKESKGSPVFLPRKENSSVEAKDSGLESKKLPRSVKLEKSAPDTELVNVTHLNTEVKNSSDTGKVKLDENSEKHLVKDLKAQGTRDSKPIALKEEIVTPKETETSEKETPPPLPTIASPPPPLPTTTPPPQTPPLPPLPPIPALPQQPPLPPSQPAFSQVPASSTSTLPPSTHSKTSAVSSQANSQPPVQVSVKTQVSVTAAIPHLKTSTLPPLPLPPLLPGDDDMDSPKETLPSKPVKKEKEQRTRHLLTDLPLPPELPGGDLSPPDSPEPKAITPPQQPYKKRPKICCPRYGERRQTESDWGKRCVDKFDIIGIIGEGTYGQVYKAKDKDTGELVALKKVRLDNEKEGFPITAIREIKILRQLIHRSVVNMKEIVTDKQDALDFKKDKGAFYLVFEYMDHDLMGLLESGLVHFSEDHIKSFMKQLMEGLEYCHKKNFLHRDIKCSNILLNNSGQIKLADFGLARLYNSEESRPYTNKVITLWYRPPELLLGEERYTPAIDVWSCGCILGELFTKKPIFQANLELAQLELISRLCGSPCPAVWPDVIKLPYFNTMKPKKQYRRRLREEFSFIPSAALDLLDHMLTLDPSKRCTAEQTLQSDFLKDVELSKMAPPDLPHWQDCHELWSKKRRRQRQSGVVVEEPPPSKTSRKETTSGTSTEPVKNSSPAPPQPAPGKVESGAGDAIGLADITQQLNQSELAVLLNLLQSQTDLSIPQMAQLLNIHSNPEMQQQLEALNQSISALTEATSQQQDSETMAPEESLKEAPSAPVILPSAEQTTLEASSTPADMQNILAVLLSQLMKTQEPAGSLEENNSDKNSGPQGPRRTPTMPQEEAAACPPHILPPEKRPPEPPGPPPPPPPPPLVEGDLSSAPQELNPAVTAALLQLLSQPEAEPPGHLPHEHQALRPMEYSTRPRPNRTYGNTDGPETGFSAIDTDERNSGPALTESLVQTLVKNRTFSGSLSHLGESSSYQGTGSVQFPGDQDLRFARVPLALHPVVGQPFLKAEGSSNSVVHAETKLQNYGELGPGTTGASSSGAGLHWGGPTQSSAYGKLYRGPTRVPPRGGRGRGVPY

| SMILES | cyclin K degradation (Cyclin K [1]) | Remaining Cyclin K (%) (Cyclin K [1]) | other results |
| --- | --- | --- | --- |
| CC[C@H](CO)Nc1nc(NCc2ccc(-c3cc(C#N)ccn3)cc2)c2ncn(C(C)C)c2n1 [compound 17] | able to successfully induce degradation | 2 ± 2 |  |
| CC[C@H](CO)Nc1nc(NCc2ccc(-c3ccc(C(=O)NC45CC6CC(CC(C6)C4)C5)cn3)cc2)c2ncn(C(C)C)c2n1 [compound 10] |  | 94 ± 8 |  |
| OCCC1CCCCN1c1cc(NCc2ccc(-c3ccco3)cc2)n2ncc(Br)c2n1 (centres unmarked) [compound 39] |  | 4 ± 4 | DMax (%) (Cyclin K [2]): >95%; DC50 (Cyclin K [2]): 0.072 µM; fold decrease in degradation ability versus pyridine counterpart (Cyclin K [2]): 4–8 fold; Kd (CDK12): 0.017 µM |
| CC[C@H](CO)Nc1nc(NCc2ccc(C3=CCCC3)cc2)c2ncn(C(C)C)c2n1 [compound 26] | complete cyclin K degradation | 5 ± 4 |  |
| O=C(NCc1ccc(-c2ccco2)cc1)c1n[nH]cc1NC(=O)c1c(Cl)cccc1Cl [compound 42] |  | 20 ± 14 | DMax (%) (Cyclin K [2]): >95%; DC50 (Cyclin K [2]): 0.168 µM; fold decrease in degradation ability versus pyridine counterpart (Cyclin K [2]): 4–8 fold; Kd (CDK12): 1 µM |
| CCc1ccnc(-c2ccc(CNc3nc(N[C@H](CC)CO)nc4c3ncn4C(C)C)cc2)c1 [compound 16] | able to successfully induce degradation | 6 ± 4 |  |
| CC[C@H](CO)Nc1nc(NCc2ccc(-c3ncccc3C)cc2)c2ncn(C(C)C)c2n1 [compound 19] | reduced degradation ability compared to CR8 | 37 ± 16 |  |
| CC[C@H](CO)Nc1nc(NCc2ccc(C3=CCCCC3)cc2)c2ncn(C(C)C)c2n1 [compound 22] | partial degradation | 22 ± 5 |  |
| CC[C@H](CO)Nc1nc(NCc2ccc(-c3ccoc3)cc2)c2ncn(C(C)C)c2n1 [compound 28] | complete degradation | 2 ± 2 |  |
| OCCC1CCCCN1c1cc(NCc2ccc(-c3ccccn3)cc2)n2ncc(Br)c2n1 (centres unmarked) [compound 36] |  | 2 ± 1 | improvement in degradation as measured by DC50 versus compound 1 (Cyclin K [2]; 36 vs 1): fivefold; DMax (%) (Cyclin K [2]): >95%; DC50 (Cyclin K [2]): 0.01 µM; fold better CDK12 affinity versus CR8/seliciclib-core analogue (CDK12; 36 vs 1, 37 vs 21): 100 fold; Kd (CDK12): 0.004 µM |
| CC[C@H](CO)Nc1nc(NCc2ccc(-c3ccc(CC(C)C)cc3)cc2)c2ncn(C(C)C)c2n1 [compound 9] |  | 79 ± 22 |  |
| OCCC1CCCCN1c1cc(NCc2ccccc2)n2ncc(Br)c2n1 (centres unmarked) [compound 43] |  |  | Kd (CDK12): 0.01 µM |
| CC[C@H](CO)Nc1nc(NCc2ccc(-c3ccncc3)cc2)c2ncn(C(C)C)c2n1 [compound 5] | comparable to that of CR8 | 9 ± 6 |  |
| C=Cc1ccc(CNc2nc(N[C@H](CC)CO)nc3c2ncn3C(C)C)cc1 [compound 34] | little to no degradation | 63 ± 22 |  |
| CC[C@H](CO)Nc1nc(NCc2ccc(-c3cccc(C)n3)cc2)c2ncn(C(C)C)c2n1 [compound 12] | complete degradation | 4 ± 4 | DMax (%) (Cyclin K [2]): >95%; DC50 (Cyclin K [2]): 0.106 µM; Kd (CDK12): 0.22 µM |
| CC[C@H](CO)Nc1nc(NCc2ccc(-c3ccc(C)cn3)cc2)c2ncn(C(C)C)c2n1 [compound 7] | abrogated degradation further | 93 ± 6 |  |

| SMILES | cyclin K degradation (Cyclin K [1]) | Remaining Cyclin K (%) (Cyclin K [1]) | other results |
| --- | --- | --- | --- |
| CC[C@H](CO)Nc1nc(NCc2ccc(-c3ccccc3)cc2)c2ncn(C(C)C)c2n1 [compound 3] | comparable to that of CR8 | 8 ± 7 |  |
| CC[C@H](CO)Nc1nc(NCc2ccc(-c3cccnc3)cc2)c2ncn(C(C)C)c2n1 [compound 4] | comparable to that of CR8 | 6 ± 4 |  |
| CC[C@H](CO)Nc1nc(NCc2ccc(-c3cc(C)ccn3)cc2)c2ncn(C(C)C)c2n1 [compound 14] |  | 1 ± 0 |  |
| CC[C@H](CO)Nc1nc(NCc2ccc(Br)cc2)c2ncn(C(C)C)c2n1 [compound 33] | little to no degradation | 73 ± 29 |  |
| CC[C@H](CO)Nc1nc(NCc2ccc(-c3cccc(F)n3)cc2)c2ncn(C(C)C)c2n1 [compound 11] | complete degradation | 2 ± 3 |  |
| Cc1ccnc(-c2ccc(CNc3cc(N4CCCCC4CCO)nc4c(Br)cnn34)cc2)c1 (centres unmarked) [compound 38] |  | 3 ± 4 |  |
| CC[C@H](CO)Nc1nc(NCc2ccc(C3CCCC3)cc2)c2ncn(C(C)C)c2n1 [compound 27] | only partial degradation | 31 ± 16 |  |
| O=C(NCc1ccc(-c2ccccn2)cc1)c1n[nH]cc1NC(=O)c1c(Cl)cccc1Cl [compound 40] |  | 1 ± 1 | DMax (%) (Cyclin K [2]): >95%; DC50 (Cyclin K [2]): 0.021 µM; fold difference (weaker) in CDK12 binding affinity versus compound 36 (CDK12; 40 vs 36): 250 fold; Kd (CDK12): 1 µM |
| CC[C@H](CO)Nc1nc(NCc2ccc(N3CCNCC3)cc2)c2ncn(C(C)C)c2n1 [compound 24] | significantly reduced degradation ability | 86 ± 20 |  |
| CC[C@H](CO)Nc1nc(NCc2ccc(-c3ccc(F)cn3)cc2)c2ncn(C(C)C)c2n1 [compound 6] | reduction in degradation activity | 42 ± 8 |  |
| O=C(NCc1ccccc1)c1n[nH]cc1NC(=O)c1c(Cl)cccc1Cl [compound 44] |  |  | Kd (CDK12): 5.5 µM |
| CC[C@H](CO)Nc1nc(NCc2ccc(-c3cc(F)ccn3)cc2)c2ncn(C(C)C)c2n1 [compound 13] |  | 3 ± 2 |  |
| CCc1ccc(CNc2nc(N[C@H](CC)CO)nc3c2ncn3C(C)C)cc1 [compound 35] | little to no degradation | 90 ± 14 |  |
| CC[C@H](CO)Nc1nc(NCc2ccc(C)cc2)c2ncn(C(C)C)c2n1 [compound 32] | little to no degradation | 89 ± 8 |  |
| CC[C@H](CO)Nc1nc(NCc2ccc(-c3ncccc3F)cc2)c2ncn(C(C)C)c2n1 [compound 18] | able to induce degradation | 17 ± 13 |  |
